From ChEMBL document CHEMBL1126000, “Synthesis of 2-substituted-1,3,4-thiadiazole-5-sulphonamides as novel water-soluble inhibitors of carbonic anhydrase” (Bioorg Med Chem Lett, 1991) come the findings set out here.

Values after ≈ are worked out from the molar mass of the structure shown. Values joined by “and” are separate entries in the source; they are usually repeats but may differ in a detail not shown here. Equal values may be shown once.

The nature of series [1]: Solubility in water, at 20 degrees Centigrade. It is filed as physicochemical.
Series [2] deals with Carbonic anhydrase (Bos taurus, UniProt P00921+Q95323+P18915+Q3SZX4).
Description: In vitro concentration that causes 50% inhibition of carbonic anhydrase carbonate hydro-lyase (EC.4.2.1.1) isolated from bovine erythrocyte

One may read the solubility as the dissolved amount per volume that the medium holds. Broadly, the IC50 is the midpoint of a concentration-inhibition curve. Higher therefore signals weaker potency in that assay. For the compound `C[C@H](NC(=O)OCc1ccccc1)C(=O)Nc1nnc(S(N)(=O)=O)s1`, in series [1] (water, read-out: Solubility), the solubility is less than 0.1 mM. The compound also gave a half-inhibitory concentration (IC50) in series [2] of 7 nM.
Turning to `CC(C)COC(=O)Nc1nnc(S(N)(=O)=O)s1`, in series [1] (water, read-out: Solubility), the solubility was 103 mM (≈ 28900 µg/mL). Besides, in series [2], the IC50 is 550 nM and 570 nM.
With `NS(=O)(=O)c1nnc(NC(=O)[C@H](Cc2ccccc2)NC(=O)OCc2ccccc2)s1`, in series [1] (water, read-out: Solubility), the solubility was less than 0.1 mM. In series [2], this compound displayed a half-maximal inhibitory concentration (IC50) of 5 nM.
On to `Br.NCC(=O)Nc1nnc(S(N)(=O)=O)s1`, for which the solubility in series [1] (water, read-out: Solubility) stood at 896 mM.
With `Br.N[C@@H](Cc1ccccc1)C(=O)Nc1nnc(S(N)(=O)=O)s1`, in series [1] (water, read-out: Solubility), the solubility amounted to 132 mM. In addition, in series [2], the IC50 came out at 30 nM.
For `NS(=O)(=O)c1nnc(NC(=O)CNC(=O)OCc2ccccc2)s1`, in that order: less than 0.1 mM and 8 nM.
For `Br.C[C@H](N)C(=O)Nc1nnc(S(N)(=O)=O)s1`, in that order: 701 mM and 9 nM.
`NCCCCC(=O)Nc1nnc(S(N)(=O)=O)s1` had a solubility in series [1] (buffer) of 0.7 mM (≈ 196 µg/mL). For the same compound, the IC50 in series [2] is 440 nM and 370 nM.
Take `CC(=O)Nc1nnc(S(N)(=O)=O)s1` [ACETAZOLAMIDE]: the solubility in series [1] (water, read-out: Solubility) was less than 0.1 mM.
